This note sets out measurements from publication PMC12434534, “Synthesis and Antiviral Evaluation of Unexplored Dioxolane-Derived 7‑Deazapurine Nucleoside Analogues against Epstein–Barr Virus (EBV)” (ACS Medicinal Chemistry Letters, 2025).

The subject of series [1] is EBV. The series can be described thus: Anti-EBV assay: reduction of EBV DNA synthesis (qPCR) in TPA-induced P3HR-1 cells. Particulars: for EC50: human gammaherpesvirus 4, P3HR-1, 120 h, read-out: EC50, Antiviral Activity against EBV (in P3HR-1 Cells); for EC90: human gammaherpesvirus 4, P3HR-1, read-out: EC90, Antiviral Activity against EBV (in P3HR-1 Cells); for SI (CC50/EC50), EBV: selectivity index = CC50/EC50, P3HR-1 cells. How it is done: The antiviral potency of all synthesized nucleosides was evaluated by in-vitro cell-based assays. P3HR-1 cells were seeded in 24-well plates at a density of 1 × 10^6 cells/mL. EBV replication was induced by adding 25 ng/mL 12-O-tetradecanoylphorbol 13-acetate (TPA) (Sigma–Aldrich, Bornem, Belgium) to the growing cells. The next day, cells were washed and resuspended in fresh medium in the presence or absence of various concentrations of synthesized nucleosides (12–19). Ganciclovir (GCV) was used as antiviral control. On day 5 post-induction, total cellular DNA was extracted (QIAamp DNA kit; Qiagen Benelux B.V, Venlo, The Netherlands), and viral DNA was quantified by quantitative PCR (qPCR) using an ABI Prism 7500 Sequence Detection System (Applied Biosystems, Foster City, CA). Thermocycling conditions for all qPCRs were done following the manufacturer’s instructions. […] The results were obtained as a means from at least three independent experiments. The selectivity index of the compound was determined by the ratio of CC50/EC50. For both efficacy and cytotoxicity assays, the 50% reduction in efficacy (EC50) and cell viability (CC50) was determined using GraphPad software (GraphPad, San Diego, CA, USA, www.graphpad.com).
0.2, 0.04, 0 μM). TPA was removed after 24 h, and the same concentration of compounds was […]
replaced. […]
Real-time PCR detection of viral DNA: EBV DNA was extracted with a QIAGEN Dneasy Blood and Tissue Kit. The DNA volume was 30 μL. DNA concentration (ng/μL) was determined with a Nanophotometer (IMPLEN). The Real -time PCR was performed using QuantiTect Sybr Green PCR Kit. The amplicon was a 71 bp portion of the EBNA1 gene. The primers were […]
(§1) The 20 μL PCR sample contained 100 ng
DNA, 10 μL Universal PCR Master Mix, primer (0.5 uM final concentration), 1 μL BamH I-HF (Restriction Enzyme, BioLabs) and RNase -free water. The PCR program consisted of 1 cycle at 50 °C, 2 minutes of UNG pretreatment, followed by 1 cycle at 95 °C for 15 minutes. Then 40 cycles of 94 °C for 15 seconds, 55 °C for 30 seconds, and 72 °C for 30 seconds were carried out.
(§2) Evaluation of Cytotoxicity: The cytotoxic effects of test compounds for P3HR1 and TZN-GFP cells were determined by CellTiter 96 Non-Radioactive Cell Proliferation assay system (Promega) using either 2,3-Bis-(2-Methoxy-4-nitro-5-sulfophenyl)-2H-tetrazolium-5-carboxanilide, disodium salt (XTT) or 3- (4,5-dimethylthiazol-2-yl)-2,5-diphenyltetrazolium bromide (MTT) methods under the same conditions as the antiviral assay but in the absence virus. Cells were seeded at a density of 1 x 105 (P3HR-1) or 2 x 104 (TZM-GFP) cells per well in 96-well plates and […]

Series [2] can be described thus: Cytotoxicity in P3HR-1 cells (XTT or MTT assay). The class given is cell-based. Particulars: human.
In series [3] the test system is HIV-FL. Put plainly: microbe, parasite or virus in culture. How it is done:
First, TZM-GFP cells were seeded in the 96-well plate (10 000/well), and after 24 h, selected compounds and HIV FL virus (MOI = 0.1) were added to the plate. […] At 48 h post-infection (hpi), GFP production due to infection was measured by Cytation 5, and a 50% reduction in efficacy (EC50) and cell viability (CC50) were determined using GraphPad software (San Diego, CA, USA, www.graphpad.com). […]
(10,000/well), and after 24 h, selected compounds and HIV FL (MOI=0.1) virus were added to the […]
plate. […] At 48 h post-infection (hpi), the GFP cells were measured by Cytation 5, and a 50% reduction in efficacy (EC50) and cell viability (CC50) was determined using GraphPad software (San Diego, California, www.graphpad.com). […]
as §2

Series [4] in a line: Cytotoxicity in TZM-GFP cells (XTT or MTT assay). The class given is cell-based. The following applies: human; concentration reducing cellular viability by 50% after 48 h, XTT or MTT assay; TZM-GFP cells. As for the experimental part: (§3) plate. […] At 48 h post-infection (hpi), the
(§4) Blood and Tissue Kit. The DNA volume was 30 μL. DNA concentration (ng/μL) was determined with a Nanophotometer (IMPLEN). The Real -time PCR was performed using QuantiTect Sybr […]
(§5) Green PCR Kit. […] The primers were
as §1
(§6) (Restriction Enzyme, BioLabs) and RNase -free water. The PCR program consisted of 1 cycle at […]
(§7) allowed to incubate overnight. On the second day, different concentrations of test compounds were […]
(§8) added to respective cells. Following 4 days of incubation at 37 °C in a CO2 incubator, the MTT or […]
(§9) XTT reagent was added, and the cells were incubated for 3 hours at 37 °C. Subsequently, the […]
(§10) absorbance of the samples was measured using a microplate reader (Biotek). The cytotoxic […]
(§11) concentration (CC50) was determined based on the viability of mock-infected cells. […]

Series [5] relates to TZM-GFP cells. Put plainly: Cytotoxicity in TZM-GFP cells (XTT or MTT assay). The class given is cell-based. How it is done: as §3, §4, §5, §1, §6, §7, §8, §9, §10, §11
[6] abbreviates: concentration reducing cellular viability by 50% after 48 h, XTT or MTT assay, P3HR-1 cells, read-out: CC50 (P3HR-1 Cells).
[7] abbreviates: Human immunodeficiency virus 1, read-out: EC50, Antiviral Activity against HIV-FL (in TZM-GFP Cells).

Like-named read-outs stand apart in the source and are kept apart here.

On to `Nc1ncnc2c1ccn2[C@H]1CO[C@@H](CO)O1` [Compound 12], for which, in series [1] (P3HR-1 cells), the “antiviral activity against EBV (in words)” value (from here on “antiviral activity”) is “inactive”. Also, the figures for the EC50 in series [1] and in series [3] (setting [7]) were above 25 µM and 5.85 ± 1.01 µM, respectively. Besides, the 90% effect concentration (EC90) in series [1] is above 25 µM. Also, the 50% cytotoxic concentration (CC50) at 48 h in series [2] (setting [6]) was 91.3 µM; in series [4] it was above 100 µM.

Consider `Nc1ncnc2c1c(F)cn2[C@H]1CO[C@@H](CO)O1` [Compound 13], for which the EC50 in series [1] stood at 1.2 ± 1.8 µM; in series [3] (setting [7]), 3.96 ± 0.39 µM. In addition, the 90% effect concentration (EC90) in series [1] was determined as 2.28 ± 1.29 µM. Moreover, the CC50 at 48 h was 71.3 ± 25.6 µM in series [2] (setting [6]) and above 100 µM in series [4].

As to `Nc1ncnc2c1c(Cl)cn2[C@H]1CO[C@@H](CO)O1` [Compound 14], the EC50 in series [1] was 12.5 ± 0.8 µM; in series [3] (setting [7]), 28.7 ± 0.45 µM. In addition, in series [1], the EC90 was above 25 µM. The half-maximal cytotoxic concentration (CC50) at 48 h in series [2] (setting [6]) was above 100 µM; in series [4], 88 µM.

`Nc1ncnc2c1c(Br)cn2[C@H]1CO[C@@H](CO)O1` [Compound 15, 7-Bromo-deazapurine-D-dioxolane nucleoside]: the “potency against EBV relative to ganciclovir (times more potent)” value in series [1] (EC50 compared with GCV, P3HR-1 cells) amounted to 14. The “antiviral activity” value in series [1] (P3HR-1 cells) is “potent anti-EBV activity”. For the same compound, in series [1], the EC50 was 0.17 µM; the 90% effect concentration (EC90) was 0.54 ± 0.36 µM; the “SI (CC50/EC50), EBV” value turned out to be 294. Besides, in series [2] (setting [6]), the half-maximal cytotoxic concentration (CC50) at 48 h was 49.9 µM. Also, the EC50 in series [3] (setting [7]) turned out to be 20.8 ± 0.25 µM. The same compound came in with a CC50 at 48 h in series [4] of 41.9 µM.

Turning to `Nc1ncnc2c1c(I)cn2[C@H]1CO[C@@H](CO)O1` [Compound 16], the “antiviral activity” value in series [1] (P3HR-1 cells) is “potent anti-EBV activity”. Further, in series [1], the half-maximal effective concentration (EC50) stood at 0.47 ± 0.2 µM; the EC90 is 1.5 ± 0.09 µM; the “SI (CC50/EC50), EBV” value was 45. For the same compound, the 50% cytotoxic concentration (CC50) at 48 h in series [2] (setting [6]) turned out to be 21.2 µM. Moreover, in series [3] (setting [7]), the EC50 turned out to be 10.3 ± 0.39 µM. The CC50 at 48 h in series [4] was found to be 11.9 µM.

As for `Nc1nc(N)c2ccn([C@H]3CO[C@@H](CO)O3)c2n1` [Compound 17], in series [1], the 50% effective concentration (EC50) was 11.9 ± 0.3 µM and the “SI (CC50/EC50), EBV” value is listed as above 8. In addition, the CC50 at 48 h in series [2] (setting [6]) is above 100 µM.

Regarding `Nc1nc(F)nc2c1ccn2[C@H]1CO[C@@H](CO)O1` [Compound 18], in series [1], the concentration for a half-maximal effect (EC50) came out at 15.5 ± 3.7 µM; the 90% effect concentration (EC90) was above 23.9 µM; the “SI (CC50/EC50), EBV” value was 6. Moreover, the CC50 at 48 h in series [2] (setting [6]) came out at 91.7 µM.

In the case of `CNc1nc(N)nc2c1ccn2[C@H]1CO[C@@H](CO)O1` [Compound 19], in series [1] (P3HR-1 cells), the “antiviral activity” value was “inactive”. For the same compound, the 50% effective concentration (EC50) in series [1] was above 25 µM. Also, the CC50 at 48 h in series [2] (setting [6]) is 13.3 µM.

`Nc1nc(O)c2ncn(COC(CO)CO)c2n1` [GCV, ganciclovir, reference compound]: in series [1], the EC50 stood at 2.5 ± 0.22 µM; the EC90 was 16.2 ± 0.21 µM; the “SI (CC50/EC50), EBV” value is on record as above 40. In series [2], this compound yielded a 50% cytotoxic concentration (CC50) at 48 h above 100 µM.

On to `C=Cc1cn([C@@H]2CO[C@H](CO)O2)c(=O)[nH]c1=O` [L-HDVD, reference compound], for which, in series [1], the EC50 came out at 0.12 ± 0.01 µM; the 90% effect concentration (EC90) is 0.52 ± 0.04 µM; the “SI (CC50/EC50), EBV” value is above 833. Besides, in series [2] (setting [6]), the half-maximal cytotoxic concentration (CC50) at 48 h is above 100 µM.

Regarding `Cc1[nH]c2ccccc2c1CC(=O)N[C@@H](Cc1ccccc1)C(=O)N(C)c1ccccc1` [PF-74, reference compound], the EC50 in series [3] (read-out: EC50, Antiviral Activity against HIV-FL (in TZM-GFP Cells), 48 hpi, MOI = 0.1, TZM-GFP cells, mean of at least three experiments) came out at 0.6 ± 0.05 µM. Besides, the “SI (CC50/EC50), HIV-FL” value in series [3] (selectivity index = CC50/EC50, TZM-GFP cells) is on record as above 166. The same compound registered a half-maximal cytotoxic concentration (CC50) in series [5] above 100 µM.
